Calls of active or inactive are those of the source. No cut-off for these calls is given here.

Assay [1] has as its system Cacopsylla melanoneura. Description: Insecticidal activity against adult of Cacopsylla melanoneura in apple plant assessed as overwintered female mortality at 300 g/ha treated for 1 hr measured after 1 day relative to control. The format is functional.
Assay [2] deals with Cacopsylla melanoneura. Briefly: Insecticidal activity against young stage of Cacopsylla melanoneura in apple plant assessed as mortality at 300 g/ha treated for 1 hr measured after 7 days relative to control. The format is functional.
Assay [3] concerns Cacopsylla melanoneura. Briefly: Insecticidal activity against adult of Cacopsylla melanoneura in apple plant assessed as reduction of progeny per female at 300 g/ha treated for 1 hr measured after 7 days. The format is functional, organism-based.
Assay [4] deals with Cacopsylla melanoneura. Description: Insecticidal activity against adult of Cacopsylla melanoneura in apple plant assessed as overwintered female mortality at 300 g/ha treated for 14 days measured after 3 days relative to control. The assay is classed as functional.
The test system of assay [5] is Cacopsylla melanoneura. Briefly: Insecticidal activity against adult of Cacopsylla melanoneura in apple plant assessed as overwintered female mortality at 300 g/ha treated for 7 days measured after 3 days relative to control. The assay is classed as functional.
The test system of assay [6] is Cacopsylla melanoneura. Description: Insecticidal activity against adult of Cacopsylla melanoneura in apple plant assessed as overwintered female mortality at 300 g/ha treated for 14 days measured after 1 day relative to control. The assay is classed as functional.
For assay [7], the system named is Cacopsylla melanoneura. Briefly: Insecticidal activity against adult of Cacopsylla melanoneura in apple plant assessed as reduction of progeny per female at 300 g/ha treated for 7 days measured after 7 days. The format is functional, organism-based.
The test system of assay [8] is Cacopsylla melanoneura. Description: Insecticidal activity against young stage of Cacopsylla melanoneura in apple plant assessed as mortality at 300 g/ha treated for 14 days measured after 7 days relative to control. The format is functional.
Assay [9] concerns Cacopsylla melanoneura. Briefly: Insecticidal activity against adult of Cacopsylla melanoneura in apple plant assessed as reduction of progeny per female at 300 g/ha treated for 14 days measured after 7 days. The format is functional, organism-based.
Assay [10] concerns Cacopsylla melanoneura. Description: Insecticidal activity against adult of Cacopsylla melanoneura in apple plant assessed as overwintered female mortality at 300 g/ha treated for 7 days measured after 1 day relative to control. The assay is classed as functional.
Assay [11] deals with Cacopsylla melanoneura. Description: Insecticidal activity against adult of Cacopsylla melanoneura in apple plant assessed as overwintered female mortality at 300 g/ha treated for 1 hr measured after 3 days relative to control. The assay is classed as functional.
Assay [12] deals with Cacopsylla melanoneura. Description: Insecticidal activity against young stage of Cacopsylla melanoneura in apple plant assessed as mortality at 300 g/ha treated for 7 days measured after 7 days relative to control. The format is functional.
Assay [13] has as its system Cacopsylla melanoneura. Briefly: Insecticidal activity against adult of Cacopsylla melanoneura in apple plant assessed as reduction of progeny per female at 135 g/ha treated for 14 days measured after 7 days. The format is functional, organism-based.
Assay [14] relates to Cacopsylla melanoneura. Briefly: Insecticidal activity against adult of Cacopsylla melanoneura in apple plant assessed as reduction of progeny per female at 135 g/ha treated for 7 days measured after 7 days. The format is functional, organism-based.
For assay [15], the system named is Cacopsylla melanoneura. Description: Insecticidal activity against young stage of Cacopsylla melanoneura in apple plant assessed as mortality at 135 g/ha treated for 14 days measured after 7 days relative to control. The format is functional.
Assay [16] deals with Cacopsylla melanoneura. Briefly: Insecticidal activity against adult of Cacopsylla melanoneura in apple plant assessed as overwintered female mortality at 135 g/ha treated for 7 days measured after 1 day relative to control. The format is functional.
Assay [17] concerns Cacopsylla melanoneura. Description: Insecticidal activity against adult of Cacopsylla melanoneura in apple plant assessed as overwintered female mortality at 135 g/ha treated for 14 days measured after 3 days relative to control. The format is functional.
The test system of assay [18] is Cacopsylla melanoneura. Description: Insecticidal activity against young stage of Cacopsylla melanoneura in apple plant assessed as mortality at 135 g/ha treated for 7 days measured after 7 days relative to control. The assay is classed as functional.
The subject of assay [19] is Cacopsylla melanoneura. Description: Insecticidal activity against adult of Cacopsylla melanoneura in apple plant assessed as overwintered female mortality at 135 g/ha treated for 1 hr measured after 3 days relative to control. The format is functional.
The subject of assay [20] is Cacopsylla melanoneura. Description: Insecticidal activity against adult of Cacopsylla melanoneura in apple plant assessed as overwintered female mortality at 135 g/ha treated for 1 hr measured after 1 day relative to control. The format is functional.
Assay [21] relates to Cacopsylla melanoneura. Description: Insecticidal activity against young stage of Cacopsylla melanoneura in apple plant assessed as mortality at 135 g/ha treated for 1 hr measured after 7 days relative to control. The format is functional.
In assay [22] the test system is Cacopsylla melanoneura. Description: Insecticidal activity against adult of Cacopsylla melanoneura in apple plant assessed as overwintered female mortality at 135 g/ha treated for 7 days measured after 3 days relative to control. The assay is classed as functional.
Assay [23] deals with Cacopsylla melanoneura. Description: Insecticidal activity against adult of Cacopsylla melanoneura in apple plant assessed as overwintered female mortality at 135 g/ha treated for 14 days measured after 1 day relative to control. The format is functional.
The test system of assay [24] is Cacopsylla melanoneura. Briefly: Insecticidal activity against adult of Cacopsylla melanoneura in apple plant assessed as reduction of progeny per female at 135 g/ha treated for 1 hr measured after 7 days. The assay is classed as functional, organism-based.
The subject of assay [25] is Cacopsylla melanoneura. Briefly: Insecticidal activity against adult of Cacopsylla melanoneura in apple plant assessed as overwintered female mortality at 187.5 g/ha treated for 14 days measured after 1 day relative to control. The format is functional.
Assay [26] deals with Cacopsylla melanoneura. Briefly: Insecticidal activity against adult of Cacopsylla melanoneura in apple plant assessed as overwintered female mortality at 187.5 g/ha treated for 14 days measured after 3 days relative to control. The assay is classed as functional.
Assay [27] has as its system Cacopsylla melanoneura. Briefly: Insecticidal activity against young stage of Cacopsylla melanoneura in apple plant assessed as mortality at 187.5 g/ha treated for 7 days measured after 7 days relative to control. The format is functional.
Assay [28] has as its system Cacopsylla melanoneura. Briefly: Insecticidal activity against young stage of Cacopsylla melanoneura in apple plant assessed as mortality at 187.5 g/ha treated for 1 hr measured after 7 days relative to control. The assay is classed as functional.
The test system of assay [29] is Cacopsylla melanoneura. Briefly: Insecticidal activity against adult of Cacopsylla melanoneura in apple plant assessed as overwintered female mortality at 187.5 g/ha treated for 7 days measured after 3 days relative to control. The format is functional.
For assay [30], the system named is Cacopsylla melanoneura. Briefly: Insecticidal activity against adult of Cacopsylla melanoneura in apple plant assessed as overwintered female mortality at 187.5 g/ha treated for 7 days measured after 1 day relative to control. The assay is classed as functional.
Assay [31] has as its system Cacopsylla melanoneura. Briefly: Insecticidal activity against adult of Cacopsylla melanoneura in apple plant assessed as overwintered female mortality at 187.5 g/ha treated for 1 hr measured after 3 days relative to control. The format is functional.
Assay [32] relates to Cacopsylla melanoneura. Briefly: Insecticidal activity against adult of Cacopsylla melanoneura in apple plant assessed as reduction of progeny per female at 187.5 g/ha treated for 14 days measured after 7 days. The format is functional, organism-based.
Assay [33] concerns Cacopsylla melanoneura. Briefly: Insecticidal activity against adult of Cacopsylla melanoneura in apple plant assessed as reduction of progeny per female at 187.5 g/ha treated for 7 days measured after 7 days. The format is functional, organism-based.
Assay [34] relates to Cacopsylla melanoneura. Description: Insecticidal activity against adult of Cacopsylla melanoneura in apple plant assessed as overwintered female mortality at 187.5 g/ha treated for 1 hr measured after 1 day relative to control. The assay is classed as functional.
Assay [35] deals with Cacopsylla melanoneura. Briefly: Insecticidal activity against adult of Cacopsylla melanoneura in apple plant assessed as reduction of progeny per female at 187.5 g/ha treated for 1 hr measured after 7 days. The assay is classed as functional, organism-based.
Assay [36] has as its system Cacopsylla melanoneura. Description: Insecticidal activity against young stage of Cacopsylla melanoneura in apple plant assessed as mortality at 187.5 g/ha treated for 14 days measured after 7 days relative to control. The format is functional.

As to `O=C(NC(=O)c1c(F)cccc1F)Nc1ccc(Cl)cc1` [DIFLUBENZURON], the Activity worked out at 20% in the assay on Cacopsylla melanoneura [1]; 98.3% with Cacopsylla melanoneura [2]; 63.3% in the assay with Cacopsylla melanoneura [4]; 56.7% in the assay on Cacopsylla melanoneura [5]; 46.7% with Cacopsylla melanoneura [6]; 86.7% in the assay on Cacopsylla melanoneura [8]. The Activity in the assay with Cacopsylla melanoneura [10] was 30%; in the assay with Cacopsylla melanoneura [11], 56.7%; in the assay on Cacopsylla melanoneura [12], 100%. Moreover, the outcome in the assay on Cacopsylla melanoneura [3], in the assay with Cacopsylla melanoneura [7] and with Cacopsylla melanoneura [9] was Active.
Regarding `CCOc1ccc(C(C)(C)COCc2cccc(Oc3ccccc3)c2)cc1` [ETOFENPROX], the outcome with Cacopsylla melanoneura [13], in the assay on Cacopsylla melanoneura [14] and with Cacopsylla melanoneura [24] was Active. Moreover, the Activity in the assay with Cacopsylla melanoneura [15] worked out at 100%; in the assay on Cacopsylla melanoneura [16] it was 93.3%; in the assay on Cacopsylla melanoneura [17], 100%; with Cacopsylla melanoneura [18], 100%; in the assay with Cacopsylla melanoneura [19], 100%; in the assay with Cacopsylla melanoneura [20], 93.3%. For the same compound, the Activity is recorded as 98.3% in the assay with Cacopsylla melanoneura [21], 93.3% in the assay with Cacopsylla melanoneura [22] and 100% with Cacopsylla melanoneura [23].
On to `CCOC(=O)NCCOc1ccc(Oc2ccccc2)cc1` [PHENOXYCARB], for which the Activity turned out to be 23.3% with Cacopsylla melanoneura [25]; 53.3% in the assay on Cacopsylla melanoneura [26]; 91.7% with Cacopsylla melanoneura [27]; 93.3% with Cacopsylla melanoneura [28]; 60% in the assay on Cacopsylla melanoneura [29]; 40% in the assay on Cacopsylla melanoneura [30]. Also, the Activity is given as 16.7% with Cacopsylla melanoneura [31], 3.3% with Cacopsylla melanoneura [34] and 100% with Cacopsylla melanoneura [36]. In addition, the result in the assay with Cacopsylla melanoneura [32], in the assay with Cacopsylla melanoneura [33] and in the assay on Cacopsylla melanoneura [35] was Active.

The record behind these values is ChEMBL document CHEMBL3044636, “Effectiveness of five insecticides for the control of adults and young stages of Cacopsylla melanoneura (Förster) (Hemiptera: Psyllidae) in a semi-field trial” (2010).
